The record followed here is ChEMBL document CHEMBL1201862, “PubChem BioAssay data set” (2004).

Calls of active or inactive are those of the source.

The target in one test is X-box-binding protein 1 (Homo sapiens, UniProt P17861). Type of test: functional, Cricetulus griseus.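 Also: confirmatory dose-response counter-screen serving a CHOP assay.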
In test [1] the target is Tyrosine-protein phosphatase non-receptor type 12 (Homo sapiens, UniProt Q05209). Nature of the test: SAR Selectivity Analysis of small molecule inhibitors of PEST using pCAP in a fluorescence assay. [Related pubchem assays (depositor defined):AID1779, AID1784, AID2135]. Type of test: functional.
Sequence of Tyrosine-protein phosphatase non-receptor type 12 (Q05209 whole entry): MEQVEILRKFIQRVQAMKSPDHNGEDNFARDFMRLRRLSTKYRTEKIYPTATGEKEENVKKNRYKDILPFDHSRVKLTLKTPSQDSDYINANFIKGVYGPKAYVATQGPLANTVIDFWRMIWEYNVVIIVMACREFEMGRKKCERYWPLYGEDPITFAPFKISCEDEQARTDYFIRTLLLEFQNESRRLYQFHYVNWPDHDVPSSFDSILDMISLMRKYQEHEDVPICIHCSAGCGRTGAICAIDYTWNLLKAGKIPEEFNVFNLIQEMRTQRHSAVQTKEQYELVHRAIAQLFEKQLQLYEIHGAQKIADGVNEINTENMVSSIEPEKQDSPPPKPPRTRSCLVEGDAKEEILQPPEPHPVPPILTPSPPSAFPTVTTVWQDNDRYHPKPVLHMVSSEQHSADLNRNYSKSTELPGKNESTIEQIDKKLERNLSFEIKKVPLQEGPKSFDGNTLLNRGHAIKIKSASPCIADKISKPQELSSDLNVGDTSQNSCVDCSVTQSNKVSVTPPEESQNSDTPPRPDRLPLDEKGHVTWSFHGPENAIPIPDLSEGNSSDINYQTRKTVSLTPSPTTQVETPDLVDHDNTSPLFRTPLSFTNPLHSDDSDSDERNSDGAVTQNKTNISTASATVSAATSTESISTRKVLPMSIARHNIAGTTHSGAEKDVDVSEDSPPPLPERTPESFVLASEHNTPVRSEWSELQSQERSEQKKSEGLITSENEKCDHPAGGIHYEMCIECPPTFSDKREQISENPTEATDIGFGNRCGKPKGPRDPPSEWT
Test [2] addresses T1, Tyrosine-protein phosphatase non-receptor type 22 (Homo sapiens, UniProt Q9Y2R2).
T1 sequence (Q9Y2R2 whole entry): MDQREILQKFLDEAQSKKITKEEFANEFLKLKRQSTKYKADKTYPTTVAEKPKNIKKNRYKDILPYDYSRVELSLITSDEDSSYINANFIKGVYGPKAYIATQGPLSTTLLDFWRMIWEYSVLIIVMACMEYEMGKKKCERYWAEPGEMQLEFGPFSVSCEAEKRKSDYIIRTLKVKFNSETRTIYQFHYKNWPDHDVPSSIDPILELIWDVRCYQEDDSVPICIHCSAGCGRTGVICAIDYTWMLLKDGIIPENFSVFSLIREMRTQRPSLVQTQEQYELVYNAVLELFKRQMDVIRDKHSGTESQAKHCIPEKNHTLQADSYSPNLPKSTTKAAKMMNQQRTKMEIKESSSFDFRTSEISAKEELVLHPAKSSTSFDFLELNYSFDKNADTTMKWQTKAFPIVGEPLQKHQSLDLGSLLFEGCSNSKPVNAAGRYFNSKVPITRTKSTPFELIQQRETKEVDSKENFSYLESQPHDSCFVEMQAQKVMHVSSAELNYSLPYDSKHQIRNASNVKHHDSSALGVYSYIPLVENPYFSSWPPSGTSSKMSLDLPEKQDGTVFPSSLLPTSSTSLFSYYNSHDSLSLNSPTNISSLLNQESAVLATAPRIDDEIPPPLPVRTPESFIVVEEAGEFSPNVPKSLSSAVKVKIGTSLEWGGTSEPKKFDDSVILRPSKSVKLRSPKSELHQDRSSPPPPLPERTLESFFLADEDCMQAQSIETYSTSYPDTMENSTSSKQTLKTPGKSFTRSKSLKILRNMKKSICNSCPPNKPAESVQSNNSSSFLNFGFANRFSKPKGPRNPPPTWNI
The experiment in a line: SAR LYP1 Fluorescent Assay using OMFP substrate for In Vitro dose response studies - Set 3. [Related pubchem assays (depositor defined):AID1779, AID1784, AID2140, AID2686]. The class given is functional.

The target of test [3] is T1, Tyrosine-protein phosphatase non-receptor type 22. The experiment in a line: inhibition of lymphoid tyrosine phosphatase LYP – biochemical, pCAP fluorogenic substrate, fluorescence, set 3, SAR follow-up (AID 449727). Type of test: functional.
Test [4] has as its target Glyceraldehyde-3-phosphate dehydrogenase (Homo sapiens, UniProt P04406).
In test [5] the target is Neuropeptides B/W receptor type 1 (Homo sapiens, UniProt P48145). The experiment in a line: human NPBW1 receptor blockade, IC50 – cell-based, fluorescence, dose response, late-stage follow-up (AID 463251). Type of test: functional.
Sequence of Neuropeptides B/W receptor type 1 (P48145 whole entry): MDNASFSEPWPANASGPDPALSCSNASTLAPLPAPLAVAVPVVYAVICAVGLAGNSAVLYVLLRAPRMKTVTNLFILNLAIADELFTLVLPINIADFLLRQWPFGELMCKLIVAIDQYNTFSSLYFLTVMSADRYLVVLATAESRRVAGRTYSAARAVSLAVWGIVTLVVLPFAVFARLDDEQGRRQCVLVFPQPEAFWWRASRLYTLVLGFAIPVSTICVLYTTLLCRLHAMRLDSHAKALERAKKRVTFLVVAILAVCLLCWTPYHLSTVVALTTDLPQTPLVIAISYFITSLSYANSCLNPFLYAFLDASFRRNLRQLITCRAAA
Test [6] has as its target Melanin-concentrating hormone receptor 1 (Homo sapiens, UniProt Q99705). Nature of the test: Late-stage fluorescence-based counterscreen for antagonists of the G-protein coupled receptor 7 (GPR7): cell-based dose response assay to identify antagonists of the melanin-concentrating hormone receptor 1 (MCHR1). [Related pubchem assays (depositor defined):AID1861, AID1880, AID1952, AID2148, AID2251, AID2257, AID485339]. The class given is functional.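 Also: stimulated with 30 nM MCH peptide agonist.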

Test [7] is described as follows: THP-1 cell cytotoxicity, dose response, cytotoxicity control for non-replicating M. tuberculosis project (AID 489025). Type of test: functional.
Another test in a line: cells. The class given is functional.
The nature of test [8]: Vero E6 cell cytotoxicity, dose response, cytotoxicity control for non-replicating M. tuberculosis project, secondary assay (AID 492998). The class given is functional, VeroE6. As to conditions: Vero C1008.
The target of test [9] is NACHT, LRR and PYD domains-containing protein 3 (Homo sapiens, UniProt Q96P20). The experiment in a line: NALP3 inhibitors in yeast, dose response, luminescent (AID 488799). Type of test: functional.
Sequence of NACHT, LRR and PYD domains-containing protein 3 (Q96P20 whole entry, the tested form may be a part): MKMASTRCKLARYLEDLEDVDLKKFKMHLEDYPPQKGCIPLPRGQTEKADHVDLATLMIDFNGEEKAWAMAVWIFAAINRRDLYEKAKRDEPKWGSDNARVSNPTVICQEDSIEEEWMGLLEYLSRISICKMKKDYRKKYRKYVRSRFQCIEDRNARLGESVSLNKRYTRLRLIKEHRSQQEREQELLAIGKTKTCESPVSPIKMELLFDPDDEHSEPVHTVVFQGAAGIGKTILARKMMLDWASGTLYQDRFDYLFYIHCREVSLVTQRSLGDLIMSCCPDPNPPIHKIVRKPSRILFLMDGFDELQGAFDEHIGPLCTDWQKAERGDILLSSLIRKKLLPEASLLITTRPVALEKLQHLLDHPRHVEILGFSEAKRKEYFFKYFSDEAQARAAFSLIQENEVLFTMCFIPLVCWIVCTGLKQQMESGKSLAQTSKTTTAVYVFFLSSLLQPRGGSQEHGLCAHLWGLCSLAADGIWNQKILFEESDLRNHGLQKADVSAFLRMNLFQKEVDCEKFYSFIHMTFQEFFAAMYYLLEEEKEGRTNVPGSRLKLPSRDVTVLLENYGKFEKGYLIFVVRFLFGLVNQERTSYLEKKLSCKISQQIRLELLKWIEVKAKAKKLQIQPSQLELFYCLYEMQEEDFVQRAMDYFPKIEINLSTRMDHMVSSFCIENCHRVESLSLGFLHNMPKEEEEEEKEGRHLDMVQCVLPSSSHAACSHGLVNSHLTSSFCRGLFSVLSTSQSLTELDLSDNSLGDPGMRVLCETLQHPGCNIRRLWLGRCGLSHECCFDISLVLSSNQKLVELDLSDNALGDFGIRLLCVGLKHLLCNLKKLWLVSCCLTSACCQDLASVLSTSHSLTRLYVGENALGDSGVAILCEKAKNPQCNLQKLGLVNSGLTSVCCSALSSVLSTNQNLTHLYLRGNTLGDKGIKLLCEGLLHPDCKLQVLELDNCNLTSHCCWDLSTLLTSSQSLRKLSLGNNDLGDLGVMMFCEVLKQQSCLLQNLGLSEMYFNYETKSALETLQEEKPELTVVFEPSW
The target of test [10] is T2, Delta-type opioid receptor (Homo sapiens, UniProt P41143). The experiment in a line: DOR agonists, SAR follow-up, image-based (AID 2370). Type of test: functional.
T2 sequence (P41143 whole entry): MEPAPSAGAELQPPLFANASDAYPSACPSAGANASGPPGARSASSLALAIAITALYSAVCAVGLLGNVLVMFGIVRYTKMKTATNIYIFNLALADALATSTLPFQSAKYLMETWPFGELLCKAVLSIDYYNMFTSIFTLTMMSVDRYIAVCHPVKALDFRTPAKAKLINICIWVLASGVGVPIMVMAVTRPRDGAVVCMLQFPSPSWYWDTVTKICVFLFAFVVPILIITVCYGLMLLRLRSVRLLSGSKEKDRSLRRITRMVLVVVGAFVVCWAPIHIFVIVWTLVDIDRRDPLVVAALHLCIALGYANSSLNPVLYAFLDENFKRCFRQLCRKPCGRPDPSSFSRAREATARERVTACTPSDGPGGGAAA
The target of test [11] is T3, Mu-type opioid receptor (Homo sapiens, UniProt P35372). Nature of the test: mu opioid receptor blockers – image-based, SAR follow-up (AID 2420).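 Also: compounds added before stimulation of receptor with agonist DAMGO.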 The class given is functional.
T3 sequence (P35372 whole entry): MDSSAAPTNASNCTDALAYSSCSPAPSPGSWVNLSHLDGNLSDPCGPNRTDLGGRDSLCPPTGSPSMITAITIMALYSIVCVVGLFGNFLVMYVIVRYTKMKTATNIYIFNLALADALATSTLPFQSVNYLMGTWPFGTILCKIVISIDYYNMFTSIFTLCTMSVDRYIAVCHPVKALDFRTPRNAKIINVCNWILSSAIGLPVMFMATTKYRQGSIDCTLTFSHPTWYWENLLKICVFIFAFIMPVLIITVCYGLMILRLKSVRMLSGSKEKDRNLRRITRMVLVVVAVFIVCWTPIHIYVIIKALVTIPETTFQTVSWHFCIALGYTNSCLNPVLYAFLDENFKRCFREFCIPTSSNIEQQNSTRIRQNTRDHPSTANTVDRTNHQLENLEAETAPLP
Test [12] has as its target T4, Kappa-type opioid receptor (Homo sapiens, UniProt P41145). The experiment in a line: kappa opioid receptor blockers, image-based, SAR follow-up (AID 2348). The class given is functional.
The target of test [13] is T2, Delta-type opioid receptor. The experiment in a line: delta opioid receptor blockers – image-based, SAR follow-up (AID 2357). Type of test: functional.
Test [14] concerns the target T4, Kappa-type opioid receptor. Nature of the test: kappa opioid receptor blockers, cell-based, luminescence, beta-arrestin, SAR follow-up (AID 2285). Type of test: functional.
Test [15] deals with T3, Mu-type opioid receptor. Nature of the test: mu opioid receptor activators, image-based, SAR follow-up (AID 2352). Type of test: functional.
Test [16] addresses T4, Kappa-type opioid receptor. Nature of the test: kappa opioid receptor activation potency – imaging, image-based, SAR follow-up (AID 2359). The class given is functional.
Test [17] addresses T5, Nucleotide-binding oligomerization domain-containing protein 1 (Homo sapiens, UniProt Q9Y239).
T5 sequence (Q9Y239 whole entry): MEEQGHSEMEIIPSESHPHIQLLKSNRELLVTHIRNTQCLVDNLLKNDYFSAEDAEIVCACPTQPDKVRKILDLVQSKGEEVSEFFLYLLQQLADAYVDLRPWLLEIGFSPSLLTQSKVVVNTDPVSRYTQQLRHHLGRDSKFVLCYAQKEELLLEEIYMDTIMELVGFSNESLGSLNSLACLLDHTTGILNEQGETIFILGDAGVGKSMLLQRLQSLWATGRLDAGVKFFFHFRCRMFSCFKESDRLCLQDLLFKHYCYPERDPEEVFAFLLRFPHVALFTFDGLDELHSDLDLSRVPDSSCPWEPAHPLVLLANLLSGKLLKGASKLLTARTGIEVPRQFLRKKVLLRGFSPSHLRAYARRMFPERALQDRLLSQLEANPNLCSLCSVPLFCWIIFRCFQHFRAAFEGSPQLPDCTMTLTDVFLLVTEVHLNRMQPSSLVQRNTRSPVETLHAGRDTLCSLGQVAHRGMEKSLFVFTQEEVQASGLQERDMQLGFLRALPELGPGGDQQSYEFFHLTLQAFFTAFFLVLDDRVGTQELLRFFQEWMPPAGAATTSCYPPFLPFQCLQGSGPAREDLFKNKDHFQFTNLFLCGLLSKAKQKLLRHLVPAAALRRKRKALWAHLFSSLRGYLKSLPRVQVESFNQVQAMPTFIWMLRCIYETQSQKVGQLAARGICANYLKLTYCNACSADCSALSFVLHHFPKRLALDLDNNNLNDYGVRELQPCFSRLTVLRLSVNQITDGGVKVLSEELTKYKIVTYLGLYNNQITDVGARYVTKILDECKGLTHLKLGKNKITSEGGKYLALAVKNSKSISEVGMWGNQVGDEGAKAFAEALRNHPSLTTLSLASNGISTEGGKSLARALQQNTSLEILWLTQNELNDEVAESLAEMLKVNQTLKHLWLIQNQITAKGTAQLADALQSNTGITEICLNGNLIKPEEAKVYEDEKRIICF
The experiment in a line: blockers of NOD1 pathway activity – revised, SAR follow-up (AID 2333). Type of test: functional.

For the next test, the target named is Tumor necrosis factor (Homo sapiens, UniProt P01375). Nature of the test: analog potency on TNFa NF-kB signaling – cell-based, revised, SAR follow-up (AID 2337). The class given is functional.
Another test concerns HEK293. Nature of the test: cells. As to conditions: Homo sapiens.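 Also: cells exposed to compound for 14 hours overnight before viability readout.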
The target of test [18] is Nucleotide-binding oligomerization domain-containing protein 2 (Homo sapiens, UniProt Q9HC29). The experiment in a line: PubChem AID 2334. Type of test: functional.
The nature of test [19]: HepG2 cell cytotoxicity, dose response, cytotoxicity control for non-replicating M. tuberculosis project (AID 489018). The class given is functional. The note with it: Mycobacterium tuberculosis.
Test [20] is described as follows: reduction of Shn3 3'UTR-driven luciferase in osteoblasts – cell-based, Clone20 osteoblasts, firefly luciferase, cherry-picked, dose response (AID 624132).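 Also: firefly luciferase luminescence from reporter carrying the Shn3 3'UTR in osteoblasts.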 Type of test: functional.
The target of test [21] is Neurotensin receptor type 1 (Homo sapiens, UniProt P30989). The class given is functional.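 Also: Image-based confirmatory dose-response assay measuring agonist activity at NTR1; NTR1-expressing U2OS osteosarcoma cells imaged for beta-arrestin GFP spot formation; agonist potency where compounds increase beta-arrestin recruitment.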
Sequence of Neurotensin receptor type 1 (P30989 whole entry): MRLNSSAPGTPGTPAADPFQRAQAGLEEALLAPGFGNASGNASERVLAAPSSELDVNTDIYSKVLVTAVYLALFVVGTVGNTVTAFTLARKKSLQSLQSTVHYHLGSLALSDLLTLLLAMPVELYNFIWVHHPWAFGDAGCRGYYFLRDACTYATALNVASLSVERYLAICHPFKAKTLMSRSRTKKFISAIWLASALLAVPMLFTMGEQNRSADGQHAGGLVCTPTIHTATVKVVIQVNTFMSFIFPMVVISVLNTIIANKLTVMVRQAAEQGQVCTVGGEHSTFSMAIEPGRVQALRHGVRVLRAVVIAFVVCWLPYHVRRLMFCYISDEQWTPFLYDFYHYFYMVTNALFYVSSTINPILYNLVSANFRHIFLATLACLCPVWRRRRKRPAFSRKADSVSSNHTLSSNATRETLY
In a further test the target is Trypsin (Sus scrofa, UniProt P00761). The experiment in a line: trypsin protease activity blockade – biochemical, quenched peptide fluorescence, cherry-pick, selectivity assay for Rce1 protease inhibitor project, dose response (AID 488789).
The next test concerns the target Protein Rev (Human immunodeficiency virus type 1 group M subtype B (isolate HXB2)(HIV-1), UniProt P04618). The experiment in a line: blockers of HIV Rev/RRE RNA complex – biochemical, fluorescence polarization, HIV-1, dose response (AID 434976). More on the design: species or system Human immunodeficiency virus 1.
In test [22] the target is Female germline-specific tumor suppressor gld-1 (Caenorhabditis elegans, UniProt Q17339). The experiment in a line: blockers of GLD-1/TGE RNA complex formation – biochemical, fluorescence polarization, C. elegans, dose response (AID 2802).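 Also: fluorescence polarization of labeled TGE RNA bound by purified gld-1 protein.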
Sequence of Female germline-specific tumor suppressor gld-1 (Q17339 whole entry): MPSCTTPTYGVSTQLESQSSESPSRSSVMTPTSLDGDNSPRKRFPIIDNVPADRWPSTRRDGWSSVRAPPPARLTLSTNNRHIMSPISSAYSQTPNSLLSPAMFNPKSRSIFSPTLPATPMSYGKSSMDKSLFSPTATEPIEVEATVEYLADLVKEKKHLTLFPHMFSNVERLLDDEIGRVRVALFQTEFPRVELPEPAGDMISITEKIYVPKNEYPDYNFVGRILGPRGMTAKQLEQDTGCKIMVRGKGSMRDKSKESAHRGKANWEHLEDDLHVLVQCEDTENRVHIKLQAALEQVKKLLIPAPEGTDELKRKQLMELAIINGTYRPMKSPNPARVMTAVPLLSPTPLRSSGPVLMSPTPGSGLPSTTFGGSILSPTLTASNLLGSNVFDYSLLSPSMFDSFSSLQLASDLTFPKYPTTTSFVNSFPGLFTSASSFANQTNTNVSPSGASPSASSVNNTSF
In test [23] the target is T6, RNA-binding protein pos-1 (Caenorhabditis elegans, UniProt G5EF15).
T6 sequence (G5EF15 whole entry): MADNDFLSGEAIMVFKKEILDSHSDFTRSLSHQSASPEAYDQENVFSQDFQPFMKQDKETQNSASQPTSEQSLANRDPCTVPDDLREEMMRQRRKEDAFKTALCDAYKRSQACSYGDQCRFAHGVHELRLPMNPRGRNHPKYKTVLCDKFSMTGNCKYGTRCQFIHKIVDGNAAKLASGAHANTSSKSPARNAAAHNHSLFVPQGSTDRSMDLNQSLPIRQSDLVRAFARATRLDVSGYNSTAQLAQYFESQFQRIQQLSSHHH
The experiment in a line: disruptors of C. elegans POS-1 RNA interaction – biochemical, fluorescence polarization, dose response (AID 1964).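 Also: purified POS-1 fused to maltose binding protein made in E. coli; potency of compounds blocking POS-1 binding to fluorescent RNA.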

The target in test [24] is T7, Zinc finger protein mex-5 (Caenorhabditis elegans, UniProt Q9XUB2).
T7 sequence (Q9XUB2 whole entry): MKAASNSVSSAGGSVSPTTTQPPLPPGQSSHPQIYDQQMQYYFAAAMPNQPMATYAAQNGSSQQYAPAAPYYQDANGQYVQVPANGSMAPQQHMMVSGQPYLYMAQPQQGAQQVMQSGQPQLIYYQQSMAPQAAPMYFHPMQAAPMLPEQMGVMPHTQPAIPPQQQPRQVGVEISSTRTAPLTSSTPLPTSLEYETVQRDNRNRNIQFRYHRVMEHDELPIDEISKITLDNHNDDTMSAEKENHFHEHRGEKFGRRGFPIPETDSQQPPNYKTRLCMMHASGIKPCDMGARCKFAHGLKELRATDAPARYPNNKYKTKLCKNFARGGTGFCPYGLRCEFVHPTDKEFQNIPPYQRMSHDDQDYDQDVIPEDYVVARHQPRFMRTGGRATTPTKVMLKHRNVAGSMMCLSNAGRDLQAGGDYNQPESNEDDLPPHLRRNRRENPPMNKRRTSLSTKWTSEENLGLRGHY
Nature of the test: potency of MEX-5 RNA-binding blockers – biochemical, C. elegans, fluorescence polarization, dose response (AID 1960).

T4 sequence (P41145 whole entry): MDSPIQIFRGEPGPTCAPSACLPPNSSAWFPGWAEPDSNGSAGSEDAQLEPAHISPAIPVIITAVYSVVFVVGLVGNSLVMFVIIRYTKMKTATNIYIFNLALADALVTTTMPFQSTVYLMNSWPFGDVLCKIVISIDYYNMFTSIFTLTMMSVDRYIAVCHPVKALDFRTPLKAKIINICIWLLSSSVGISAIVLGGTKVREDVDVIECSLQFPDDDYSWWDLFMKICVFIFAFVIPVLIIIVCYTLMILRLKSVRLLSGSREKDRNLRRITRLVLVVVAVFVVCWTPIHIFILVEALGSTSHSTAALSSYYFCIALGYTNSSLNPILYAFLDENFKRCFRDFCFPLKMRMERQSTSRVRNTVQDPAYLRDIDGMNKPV
Sequence of Melanin-concentrating hormone receptor 1 (Q99705 whole entry): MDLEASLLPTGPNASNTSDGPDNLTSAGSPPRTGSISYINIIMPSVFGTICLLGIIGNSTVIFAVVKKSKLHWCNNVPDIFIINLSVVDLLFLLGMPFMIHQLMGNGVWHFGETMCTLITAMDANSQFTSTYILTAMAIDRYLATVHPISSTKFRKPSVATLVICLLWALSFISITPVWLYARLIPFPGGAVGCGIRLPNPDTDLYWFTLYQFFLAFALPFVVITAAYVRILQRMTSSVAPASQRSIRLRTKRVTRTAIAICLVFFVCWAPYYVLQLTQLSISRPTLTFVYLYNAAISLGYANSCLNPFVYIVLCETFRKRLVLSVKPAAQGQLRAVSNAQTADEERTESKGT
Sequence of Glyceraldehyde-3-phosphate dehydrogenase (P04406 whole entry): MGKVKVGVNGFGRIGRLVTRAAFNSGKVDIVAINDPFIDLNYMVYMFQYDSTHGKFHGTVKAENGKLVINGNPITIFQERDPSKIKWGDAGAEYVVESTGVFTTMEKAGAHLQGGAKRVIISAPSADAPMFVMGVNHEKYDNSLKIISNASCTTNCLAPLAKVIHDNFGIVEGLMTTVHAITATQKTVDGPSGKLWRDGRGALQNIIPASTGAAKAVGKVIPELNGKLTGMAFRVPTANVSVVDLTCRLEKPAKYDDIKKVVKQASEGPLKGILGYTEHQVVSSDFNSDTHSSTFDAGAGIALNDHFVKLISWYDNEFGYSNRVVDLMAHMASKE

On to `Cc1sc2ncnc(N3CCCCC3C)c2c1C` (stereo not drawn), for which the “Absolute IC50 (XBP1)” value at X-box-binding protein 1 turned out to be 10 µM.

`O=C(O)c1ccc(-c2ccc(/C=C3\SC(=S)N(c4ccc([N+](=O)[O-])cc4)C3=O)o2)cc1`: the IC50 in test [1] is 0.216 µM (active); in [2] it was 0.821 µM (active); in test [3], 0.602 µM (active); in test [4], > 100 µM (not active).

Consider `COc1cc(OC)cc(Oc2c(Cl)cnn(-c3ccc(C(C)C)cc3)c2=O)c1`, for which the IC50 in [5] is 8.2 µM (active); in test [6], 10.5 µM (inactive).

Turning to `O=c1c2cc(Cl)ccc2nc(-c2ccc([N+](=O)[O-])cc2)n1O`, the values for the CC50 in test [7] and in test [8] were 22.6 µM (active) and 17.3 µM (active), respectively. The IC50 was 17.8 µM (active) in the test “cells” and 6.6 µM (active) in test [9].

Turning to `O=C(c1ccc(CNS(=O)(=O)c2ccccc2)cc1)N1CCN(Cc2ccccc2)CC1`, the EC50 (in [10]; at Mu-type opioid receptor [15]; in test [16]) was > 32 µM (inactive) in each case. Also, the IC50 was > 32 µM (inactive) at Mu-type opioid receptor [11], > 32 µM (inactive) in test [12], > 32 µM (inactive) in test [13] and > 10 µM (inactive) in test [14].

Take `CC(=O)Nc1nc2ccccc2n1Cc1ccc(Cl)cc1`: the IC50 in test [17] is 18.8 µM (active); at Tumor necrosis factor, > 20 µM (inactive); with HEK293, > 20 µM (inactive); in “cells” it was 1.02 µM (active); in [18] it was > 20 µM (inactive). The half-maximal cytotoxic concentration (CC50) was 30.9 µM (active) in [7], 12.9 µM (active) in [8] and > 20 µM (active) in test [19].

On to `CCOc1cc(/C=C2\C(=O)ON=C2C)ccc1OCc1ccccc1`, for which the AC50 in [20] is 10.4 µM (active). Moreover, the EC50 in test [21] was 13.9 µM (active).

Turning to `CCn1cc(C(=O)NCCO)c(=O)c2cc(F)c(N3CCN(C)CC3)cc21`, the AC50 at Trypsin was 39.2 µM (active).

As for `O=C(CN1C(=O)C2CC=C(Cl)CC2C1=O)NCc1ccccc1` (stereo not drawn), the concentration for half-maximal inhibition (IC50) against Protein Rev was 25.8 µM (not active); in test [22], 7.72 µM (active). Further, the EC50 was 34.1 µM (active) in [23] and 24.7 µM (active) in test [24].
